Bounds are passed on as bounds.

For experiment [1], the target named is T1, Adrenergic receptor alpha-2 (Rattus norvegicus) (UniProt P22086+P19328+P22909). In words: In vitro antagonistic activity against alpha-2A adrenergic receptor in rat vas deferens. The experiment is classed as functional, tissue-based.
Experiment [2] concerns the target T1, Adrenergic receptor alpha-2 (Rattus norvegicus). In words: In vitro agonist activity against alpha-2A adrenergic receptor in rat vas deferens. The class given is functional, tissue-based.
Experiment [3] concerns the target T2, Adrenergic receptor alpha-1 (Rattus norvegicus) (UniProt P15823+P23944+P43140). In words: In vitro antagonistic activity against alpha-1 adrenergic receptor in rat anococcygeus. The class given is functional.
Experiment [4] deals with T2, Adrenergic receptor alpha-1 (Rattus norvegicus). In words: In vitro agonist activity against alpha-1 adrenergic receptor in rat anococcygeus. The experiment is classed as functional.
Experiment [5] concerns the target T1, Adrenergic receptor alpha-2 (Rattus norvegicus). Put plainly: In vitro antagonistic activity against alpha-2A adrenergic receptor in rat vas deferens; Ag means compound was agonist. The class given is functional. Conditions: filed as agonist.
Experiment [6] relates to Rattus norvegicus. In words: Effective dose of the compound required to inhibit electrically evoked contractions of rat vas deferens after i.v. administration. The experiment is classed as functional. The conditions noted are these: iv.
The species entered for experiment [7] is Rattus norvegicus. In words: Maximum percent inhibition electrically evoked contractions of rat vas deferens by the compound was determined as test for its agonistic activity. The class given is functional.
Experiment [8] deals with T2, Adrenergic receptor alpha-1 (Rattus norvegicus). Put plainly: In vitro antagonistic activity against Alpha-1 adrenergic receptor in rat anococcygeus. The experiment is classed as functional.
Experiment [9] concerns the target T1, Adrenergic receptor alpha-2 (Rattus norvegicus). Put plainly: Antagonistic potency towards alpha-2 adrenergic receptor was determined by observing twich response of rat vas deferens after i.v. administration. The experiment is classed as functional, organism-based.
For experiment [10], the species on record is Rattus norvegicus. Put plainly: Antagonist activity against guanoxabenz-induced mydriasis in rat when given […]. The experiment is classed as functional.
The target of experiment [11] is T2, Adrenergic receptor alpha-1 (Rattus norvegicus). In words: In vitro antagonistic activity against alpha-1 adrenergic receptor in rat anococcygeus; Ag means compound was agonist. The experiment is classed as functional. The conditions noted are these: filed as agonist.
For experiment [12] the target is unchanged. Put plainly: In vitro agonist activity against alpha-1 adrenoceptor in rat anococcygeus. The class given is functional.
Experiment [13] has as its target T1, Adrenergic receptor alpha-2 (Rattus norvegicus). In words: In vitro antagonistic activity against alpha-2 adrenoceptor in rat vas deferens. The class given is functional, tissue-based.
For experiment [14] the target is unchanged. In words: In vitro agonist activity against alpha-2 adrenoceptor in rat vas deferens. The class given is functional, tissue-based.
Experiment [15] deals with T2, Adrenergic receptor alpha-1 (Rattus norvegicus). Put plainly: In vitro antagonistic activity against alpha1 adrenoceptor in rat anococcygeus; Ag means compound was agonist. The class given is functional. The conditions noted are these: filed as agonist.
Experiment [16] concerns the target T1, Adrenergic receptor alpha-2 (Rattus norvegicus). In words: In vitro antagonistic activity against alpha-2 adrenoceptor in rat vas deferens; Ag means compound was agonist. The experiment is classed as functional. Conditions: filed as agonist.
Experiment [17] has the same target. The conditions noted are these: Vas deferens.
Description: Inhibitory activity against Alpha-2 adrenergic receptor in rat vas deferens
The species named for experiment [18] is Rattus norvegicus. Put plainly: Antagonist potency for alpha 2 adrenoceptor. The class given is functional, organism-based. The conditions noted are these: read-out: pA2 (converted).
The target in experiment [19] is T1, Adrenergic receptor alpha-2 (Rattus norvegicus). Put plainly: In vitro antagonistic activity against Alpha-2 adrenergic receptor in rat vas deferens; Ag means compound was agonist. The class given is functional. The conditions noted are these: filed as agonist.
Experiment [20] has the same target. In words: In vitro agonist activity against Alpha-2 adrenergic receptor in rat vas deferens. The experiment is classed as functional, tissue-based.

For the compound `c1cc2c(cc1NC1=NCCN1)OCO2`, the Potency in experiment [1] came to 0.025; in [2], 0.03; in experiment [3], 0.003; in [4] it was 0.
Take `CC(=O)N1CCc2ccc(NC3=NCCN3)cc21`: the Potency was 0.006 in experiment [2], 2e-05 in experiment [3], 0 in [4] and “Agonist” in experiment [5].
What is called Inhibition is the relative decrease from the control value, in per cent. `Brc1c(NC2=NCCN2)ccc2nccnc12` [BRIMONIDINE] returned an ED40 in experiment [6] of 0.0033 mg/kg. In experiment [7], this compound displayed an Inhibition of 100%.
In turn, `I.O=CN1CCOc2ccc(NC3=NCCN3)cc21` displayed an ED40 in [6] of 0.385 mg/kg. Also, the Potency is 0.0006 in experiment [8], 0.02 in experiment [2] and “Agonist” in experiment [5]. In addition, in experiment [9], the DR2 (ug min-1 kg-1) turned out to be 6.8. Besides, in experiment [7], the Inhibition amounted to 62%. The compound further came in with an AD50 in experiment [10] of 0.297 mg/kg.
For `O=C1COc2ccc(NC3=NCCN3)cc2N1`, the Potency in experiment [1] was 0.0005; in experiment [2], 0; in experiment [4], 0.002; in experiment [11], “Agonist”.
Take `O=C1COc2cc(NC3=NCCN3)ccc2N1`: the Potency was 0.006 in experiment [12], 0.0013 in experiment [13], 0 in experiment [14] and “Agonist” in [15].
With `O=CN1CCOc2cc(NC3=NCCN3)ccc21`, the Potency in experiment [12] is 0.02; in [16], “Agonist”; in experiment [14], 0.006; in experiment [15] it was “Agonist”.
On to `CN1CCOc2cc(NC3=NCCN3)ccc21.I`, for which, in experiment [6], the ED40 was 6.74 mg/kg. In addition, the Potency in [2] was 0.03; in experiment [4] it was 0.0002. Besides, the DR2 (ug min-1 kg-1) in [9] was determined as 4.62. The Activity result in experiment [11] and in experiment [5] was “Agonist” throughout. The compound further showed an Inhibition in experiment [7] of 65%. Also, in [10], the AD50 stood at 0.0589 mg/kg.
With `Nc1cc(Cl)c(N=C2NCCN2)c(Cl)c1`, in experiment [17], the IC40 was 1.99 nM.
`CCN1CCc2ccc(NC3=NCCN3)cc21`: the Potency in experiment [1] is 0.04; in [2], 0; in experiment [4] it was 0.17; in experiment [11], “Agonist”.
For the compound `c1ccc2c(c1)OCC(C1=NCCN1)O2` (centres undefined) [IDAZOXAN], in experiment [18], the Kb is 10.5 nM. Moreover, the DR2 (ug min-1 kg-1) in experiment [9] was 2. The AD50 in experiment [10] amounted to 0.02936 mg/kg.
In experiment [6], `CC(=O)N1CCOc2ccc(NC3=NCCN3)cc21.I` gave an ED40 of 0.0179 mg/kg. Further, the Potency in experiment [2] is 0.1; in experiment [3] it was 0.0006; in [4], 0; in [5] it was “Agonist”. The Inhibition in experiment [7] was 69%. In addition, in [10], the AD50 is more than 0.2 mg/kg.
On to `CN1CCOc2ccc(NC3=NCCN3)cc21`, for which the Potency in experiment [2] was 0.025; in experiment [4], 0.5; in [11] it was “Agonist”; in experiment [5], “Agonist”.
`c1ccc(CN2CCOc3cc(NC4=NCCN4)ccc32)cc1`: the Potency in [2] was 0.02; in experiment [3] it was 0.001; in experiment [4] it was 0; in experiment [5] it was “Agonist”.
For `CCN1CCOc2cc(NC3=NCCN3)ccc21`, the Potency in [2] is less than 0.01; in [4], 0.055; in experiment [11], “Agonist”; in [5], “Agonist”.
For the compound `c1cc2c(cc1NC1=NCCN1)OCCO2`, the Potency is 0.01 in experiment [12], “Agonist” in experiment [19], 1.5 in experiment [20] and “Agonist” in experiment [15].
In the case of `CS(=O)(=O)N1CCOc2ccc(NC3=NCCN3)cc21.I`, the ED40 in experiment [6] was found to be 0.0273 mg/kg. The Potency in experiment [2] is 0.22; in experiment [3] it was 0.0005; in experiment [4], 0; in experiment [5], “Agonist”. In [7], this compound registered an Inhibition of 70%. This compound also yielded an AD50 in [10] of more than 0.3 mg/kg.
Take `Clc1cccc(Cl)c1NC1=NCCN1`: the Potency in experiment [12] was 0.8; in experiment [16] it was “Agonist”; in experiment [14] it was 0.49; in experiment [15], “Agonist”.

(Values after ChEMBL document CHEMBL1124536, “Heteroaromatic analogues of the alpha 2-adrenoreceptor partial agonist clonidine” (J Med Chem, 1989).)
